Literature values in patent publication US7259160B2, “Hexahydrodiazepinones as dipeptidyl peptidase-IV inhibitors for the treatment or prevention of diabetes” (Merck & Co., Inc., priority 2003, dated 2007).

Columns and labels:
hematopoiesis = settings: mouse, cyclophosphamide-induced neutropenia
DPP-IV = molecular target: T1, DPP-IV (Homo sapiens, UniProt P27487)
T1 construct: GRF is rapidly degraded in plasma to GRF[344]
T1 sequence (P27487 whole entry, species assumed): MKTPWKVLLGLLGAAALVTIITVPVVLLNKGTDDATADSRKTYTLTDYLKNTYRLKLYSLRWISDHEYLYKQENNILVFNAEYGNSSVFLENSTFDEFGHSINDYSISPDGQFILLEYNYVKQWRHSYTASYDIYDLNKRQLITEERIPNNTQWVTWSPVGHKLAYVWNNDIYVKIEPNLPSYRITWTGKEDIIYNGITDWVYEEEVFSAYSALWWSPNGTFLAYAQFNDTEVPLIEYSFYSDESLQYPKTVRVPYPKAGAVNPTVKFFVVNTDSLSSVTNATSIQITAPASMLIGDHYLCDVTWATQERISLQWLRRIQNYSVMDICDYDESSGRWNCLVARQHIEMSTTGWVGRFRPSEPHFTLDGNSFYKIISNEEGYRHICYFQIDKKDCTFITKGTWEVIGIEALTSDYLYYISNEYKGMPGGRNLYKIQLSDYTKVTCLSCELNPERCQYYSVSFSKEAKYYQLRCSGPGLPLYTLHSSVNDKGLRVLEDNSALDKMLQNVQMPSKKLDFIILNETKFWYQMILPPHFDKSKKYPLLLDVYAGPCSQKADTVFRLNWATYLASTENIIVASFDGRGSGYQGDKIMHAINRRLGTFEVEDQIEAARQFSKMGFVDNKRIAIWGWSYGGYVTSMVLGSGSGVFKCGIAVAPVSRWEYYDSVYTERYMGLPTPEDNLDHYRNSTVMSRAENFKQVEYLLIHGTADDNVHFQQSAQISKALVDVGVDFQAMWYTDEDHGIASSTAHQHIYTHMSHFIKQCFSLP

Question: With `CC(C)[C@H](N)C(=O)N1CCC[C@H]1B(O)O` [Val-Boro-Pro] as the molecule, how does the hematopoiesis (hematopoiesis) read?
Answer: stimulated hematopoiesis

Question: With diprotin A as the molecule, how does the “degradation of GRF in plasma” value (DPP-IV) read?
Answer: prevented
